Measured values: the NIST ThermoML archive (doi:10.1021/acs.jced.6b00048)
± gives the expanded uncertainty stated by the source.

Experiment: wn = mass fraction of the nth substance listed
Details: 100 kPa, Liquid, Vibrating tube method, w1 = 0.5821

[Cl-].[Cl-].[Zn+2] [zinc chloride] + O
mass density (288.15 K): 1702.7 ± 6.9 kg/m3 | mass density (298.15 K): 1692.5 ± 6.9 kg/m3 | mass density (323.15 K): 1666.6 ± 6.7 kg/m3
